The test system of the test is recombinant guanylate cyclase reporter cell line. The experiment in a line: Effect on a recombinant guanylate cyclase reporter cell line. It counts as cell-based. Conditions: in some cases mean values from individual determinations, read-out: MEC (minimum effective concentration). As to the method: B-2. Effect on a Recombinant Guanylate Cyclase Reporter Cell Line
The cellular activity of the compounds according to the invention is determined using a recombinant guanylate cyclase reporter cell line, as described in F. Wunder et al., Anal. Biochem. 339, 104-112 (2005).
Representative MEC values (MEC=minimum effective concentration) for the compounds of the invention are shown in the table below (in some cases as mean values from individual determinations): […]

Where a name gives a salt, the structure may show the parent alone.

For `Cc1cc(OCc2c(F)cccc2F)n2nc(C)c(-c3cc(F)ncc3F)c2c1` [Example 17, 7-[(2,6-Difluorobenzyl)oxy]-3-(2,5-difluoropyridin-4-yl)-2,5-dimethylpyrazolo[1,5-a]pyridine], the minimal effective concentration is 2 µM. With `Cc1cc(OCc2c(F)cccc2F)n2nc(C)c(-c3cnn(Cc4ccccc4)c3)c2c1` [Example 6, 3-(1-Benzyl-1H-pyrazol-4-yl)-7-[(2,6-difluorobenzyl)oxy]-2,5-dimethylpyrazolo[1,5-a]pyridine] the figure was 0.1 µM; with `Cc1cc(OCc2c(F)cccc2F)n2nc(C)c(-c3cncc(C(N)=O)c3)c2c1` [Example 28, 5-{7-[(2,6-Difluorobenzyl)oxy]-2,5-dimethylpyrazolo[1,5-a]pyridin-3-yl}nicotinamide], 0.03 µM. With `CCOC(=O)c1cncc(-c2c(C)nn3c(OCc4c(F)cccc4F)cc(C)cc23)c1` [Example 18, Ethyl 5-{7-[(2,6-difluorobenzyl)oxy]-2,5-dimethylpyrazolo[1,5-a]pyridin-3-yl}nicotinate], the minimal effective concentration was 10 µM. Turning to `Cc1cc(OCc2c(F)cccc2F)n2nc(C)c(-c3cnn(CCC(=O)NC4CC4)c3)c2c1` [Example 23, N-Cyclopropyl-3-(4-{7-[(2,6-difluorobenzyl)oxy]-2,5-dimethylpyrazolo[1,5-a]pyridin-3-yl}-1H-pyrazol-1-yl)propanamide], the minimal effective concentration amounted to 0.03 µM.

With `Cc1cc(OCc2c(F)cccc2F)n2nc(C)c(-c3ccnc(N4CCNCC4)c3)c2c1` [Example 15, 7-[(2,6-Difluorobenzyl)oxy]-2,5-dimethyl-3-[2-(piperazin-1-yl)pyridin-4-yl]pyrazolo[1,5-a]pyridine], the minimal effective concentration is 0.3 µM. As to `Cc1cc(OCc2c(F)cccc2F)n2nc(C)c(-c3nc(NCC(C)(C)N)c4c(n3)NC(=O)C4(C)C)c2c1` [Example 35, 4-[(2-Amino-2-methylpropyl)amino]-2-{7-[(2,6-difluorobenzyl)oxy]-2,5-dimethylpyrazolo[1,5-a]pyridin-3-yl}-5,5-dimethyl-5,7-dihydro-6H-pyrrolo[2,3-d]pyrimidin-6-one], the minimal effective concentration was 3 µM. The result for `Cc1cc(OCc2c(F)cccc2F)n2nc(C)c(-c3cccc(CN4CCCC4)c3)c2c1` [Example 11, 7-[(2,6-Difluorobenzyl)oxy]-2,5-dimethyl-3-[3-(pyrrolidin-1-ylmethyl)phenyl]pyrazolo[1,5-a]pyridine] reads 0.03 µM.

In the case of `CCS(=O)(=O)c1cccc(-c2c(C)nn3c(OCc4c(F)cccc4F)cc(C)cc23)c1` [Example 7, 7-[(2,6-Difluorobenzyl)oxy]-3-[3-(ethylsulphonyl)phenyl]-2,5-dimethylpyrazolo[1,5-a]pyridine], the minimal effective concentration is 0.065 µM.

Regarding `Cc1cc(OCc2c(F)cccc2F)n2nc(C)c(-c3cccc(NS(C)(=O)=O)c3)c2c1` [Example 13, N-(3-{7-[(2,6-Difluorobenzyl)oxy]-2,5-dimethylpyrazolo[1,5-a]pyridin-3-yl}phenyl)methansulphonamide], the minimal effective concentration was found to be 0.1 µM. With `CC(=O)c1cccc(-c2c(C)nn3c(OCc4c(F)cccc4F)cc(C)cc23)c1` [Example 2, 1-(3-{7-[(2,6-Difluorobenzyl)oxy]-2,5-dimethylpyrazolo[1,5-a]pyridin-3-yl}phenyl)ethanone] the figure was 0.53 µM. For the molecule `Cc1cn2c(-c3nc(N)nc(N)n3)c(C)nc2c(OCc2c(F)cccc2F)n1` [Example 20, 6-{8-[(2,6-Difluorobenzyl)oxy]-2,6-dimethylimidazo[1,2-a]pyrazin-3-yl}-1,3,5-triazine-2,4-diamine trifluoroacetate], the minimal effective concentration is 2 µM. The result for `Cc1cc(OCc2c(F)cccc2F)n2nc(C)c(-c3cnn(-c4ccc(F)cc4)c3)c2c1` [Example 8, 7-[(2,6-Difluorobenzyl)oxy]-3-[1-(4-fluorophenyl)-1H-pyrazol-4-yl]-2,5-dimethylpyrazolo[1,5-a]pyridine] reads 1 µM; that for `Cc1cc(OCc2c(F)cccc2F)n2nc(C)c(-c3cnc(Cl)c(C)c3)c2c1` [Example 9, 3-(6-Chloro-5-methylpyridin-3-yl)-7-[(2,6-difluorobenzyl)oxy]-2,5-dimethylpyrazolo[1,5-a]pyridine], 3 µM.

Turning to `COC(=O)CCn1cc(-c2c(C)nn3c(OCc4c(F)cccc4F)cc(C)cc23)cn1` [Example 21, Methyl 3-(4-{7-[(2,6-difluorobenzyl)oxy]-2,5-dimethylpyrazolo[1,5-a]pyridin-3-yl}-1H-pyrazol-1-yl)propanoate trifluoroacetate], the minimal effective concentration was determined as 0.03 µM. As to `Cc1cc(OCc2c(F)cccc2F)n2nc(C)c(-c3cnn(CCO)c3)c2c1` [Example 24, 2-(4-{7-[(2,6-Difluorobenzyl)oxy]-2,5-dimethylpyrazolo[1,5-a]pyridin-3-yl}-1H-pyrazol-1-yl)ethanol trifluoroacetate], the minimal effective concentration came to 0.065 µM. With `Cc1cc(OCc2c(F)cccc2F)n2nc(C)c(-c3cnn(CCc4c(C)n[nH]c4C)c3)c2c1` [Example 25, 7-[(2,6-Difluorobenzyl)oxy]-3-{1-[2-(3,5-dimethyl-1H-pyrazol-4-yl)ethyl]-1H-pyrazol-4-yl}-2,5-dimethylpyrazolo[1,5-a]pyridine] the figure was 0.065 µM. With `Cc1cn2c(-c3cn[nH]c3)c(C)nc2c(OCc2c(F)cccc2F)n1` [Example 19, 8-[(2,6-Difluorobenzyl)oxy]-2,6-dimethyl-3-(1H-pyrazol-4-yl)imidazo[1,2-a]pyrazine trifluoroacetate] the figure was 0.3 µM; with `Cc1cc(OCc2c(F)cccc2F)n2nc(C3CC3)c(-c3cnn(CCN4CCOCC4)c3)c2c1` [Example 30, 2-Cyclopropyl-7-[(2,6-difluorobenzyl)oxy]-5-methyl-3-{1-[2-(morpholin-4-yl)ethyl]-1H-pyrazol-4-yl}pyrazolo[1,5-a]pyridine], 0.01 µM. For the molecule `Cc1cc(OCc2c(F)cccc2F)n2nc(C)c(-c3cn[nH]c3)c2c1` [Example 1, 7-[(2,6-Difluorobenzyl)oxy]-2,5-dimethyl-3-(1H-pyrazol-4-yl)pyrazolo[1,5-a]pyridine], the minimal effective concentration worked out at 0.03 µM. With `Cc1cc(OCc2c(F)cccc2F)n2nc(C)c(-c3nc(N)c4c(n3)NC(=O)C4(C)C)c2c1` [Example 34, 4-Amino-2-{7-[(2,6-difluorobenzyl)oxy]-2,5-dimethylpyrazolo[1,5-a]pyridin-3-yl}-5,5-dimethyl-5,7-dihydro-6H-pyrrolo[2,3-d]pyrimidin-6-one trifluoroacetate] the figure was 1 µM.

The record behind these values is patent US10174021B2, “Substituted pyrazolo[1,5-A]pyridines and their use” (BAYER PHARMA AKTIENGESELLSCHAFT, priority 2014, dated 2019).
